Reference: patent publication US7371748B2, “Benzothiazole derivatives” (Hoffman-La Roche Inc., priority 2003, dated 2008)

Legend:
[1] = target: T1, human adenosine A2A receptor (Homo sapiens, UniProt P29274); assay: [3H]-SCH-58261 binding assay, human adenosine A2A receptor; conditions: human A2A receptor recombinantly expressed in CHO cell membranes; [3H]-SCH-58261 1 nM; Ki from IC50 by Cheng-Prussoff equation; read-out: Ha2 (pKi) (converted)
T1 construct: expressed in transfected cells; host or cells: CHO cells, Semliki Forest virus expression system; membrane preparation
Experimental: Human Adenosine A2A Receptor
The human adenosine A2A receptor was recombinantly expressed in chinese hamster ovary (CHO) cells using the semliki forest virus expression system. Cells were harvested, washed twice by centrifugation, homogenized and again washed by centrifugation. The final washed membrane pellet was suspended in a Tris (50 mM) buffer containing 120 mM NaCl, 5 mM KCl, 2 mM CaCl2 and 10 mM MgCl2 (pH 7.4) (buffer A). The [^3H]-SCH-58261 (Dionisotti et al., […], Br J Pharmacol 121, 353; 1 nM) binding assay was carried out in 96-well plates in the presence of 2.5 μg of membrane protein, 0.5 mg of Ysi-poly-1-lysine SPA beads and 0.1 U adenosine deaminase in a final volume of 200 μl of buffer A. Non-specific binding was defined using xanthine amine congener (XAC; 2 μM). Compounds were tested at 10 concentrations from 10 μM-0.3 nM. All assays were conducted in duplicate and repeated at least two times. Assay plates were incubated for 1 hour at room temperature before centrifugation and then bound ligand determined using a Packard Topcount scintillation counter. IC50 values were calculated using a non-linear curve fitting program and Ki values calculated using the Cheng-Prussoff equation.

T1 sequence (P29274 whole entry): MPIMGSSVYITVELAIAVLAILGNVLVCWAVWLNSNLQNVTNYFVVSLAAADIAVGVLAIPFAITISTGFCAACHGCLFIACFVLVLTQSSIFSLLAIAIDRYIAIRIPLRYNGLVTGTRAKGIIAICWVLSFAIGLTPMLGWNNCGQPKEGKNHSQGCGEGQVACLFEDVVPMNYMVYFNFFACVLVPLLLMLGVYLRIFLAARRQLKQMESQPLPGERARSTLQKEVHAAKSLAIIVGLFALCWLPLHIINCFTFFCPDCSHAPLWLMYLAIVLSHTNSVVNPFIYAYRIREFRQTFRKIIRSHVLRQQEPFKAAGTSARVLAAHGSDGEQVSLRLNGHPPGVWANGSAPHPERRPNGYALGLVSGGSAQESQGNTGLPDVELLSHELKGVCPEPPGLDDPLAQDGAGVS

Row | melting point | Ki [1] | Structure (SMILES)
1 | 93 to 95 °C | 1.58 nM | COCCNCc1cc(C(=O)Nc2nc3c(OC)ccc(C4CCOCC4)c3s2)ccn1 [Example 35, 2-[(2-Methoxy-ethylamino)-methyl]-N-[4-methoxy-7-(tetrahydro-pyran-4-yl)-benzothiazol-2-yl]-isonicotinamide]
2 | 185 to 188 °C | 1.26 nM | COc1ccc(C2CCOCC2)c2sc(NC(=O)N(C)C3CC4CCC3O4)nc12 (single isomer, unassigned) [Example 55, (exo)-(+)-3-[4-Methoxy-7-(tetrahydro-pyran-4-yl)-benzothiazol-2-yl]-1-methyl-1-(7-oxa-bicyclo[2.2.1]hept-2-yl)-urea]
